Laboratory results published in PMC7246765, “Development of a Radiofluorinated Adenosine A2B Receptor Antagonist as Potential Ligand for PET Imaging” (International Journal of Molecular Sciences, 2020).

Experiments:
[1] = set-up: method as in PMID 30104122; conditions: mice, 30 min p.i.; cited from earlier work
[2] = biological target: T1, human adenosine A1 receptor (Homo sapiens, UniProt P30542); assay: Competitive radioligand binding with [3H]CCPA, membranes of CHO or HEK cells; conditions: for Ki: [3H]CCPA, mean ± SEM of three independent assays; for Selectivity Ratio Ki(Ax)/Ki(A2B): A1/A2B: ratio of Ki values
T1 construct: host or cells: CHO or HEK cells
T1 sequence (P30542 1-326): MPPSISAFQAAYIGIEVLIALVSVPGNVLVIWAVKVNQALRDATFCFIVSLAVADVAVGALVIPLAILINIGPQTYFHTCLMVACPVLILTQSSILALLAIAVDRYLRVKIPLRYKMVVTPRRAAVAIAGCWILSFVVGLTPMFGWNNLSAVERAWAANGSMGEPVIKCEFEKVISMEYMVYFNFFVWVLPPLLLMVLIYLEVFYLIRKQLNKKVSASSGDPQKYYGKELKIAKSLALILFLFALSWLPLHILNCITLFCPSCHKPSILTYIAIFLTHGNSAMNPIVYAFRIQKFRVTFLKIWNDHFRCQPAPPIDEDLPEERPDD
Experimental: (§1) The binding affinities of 2 and 9 at the four human adenosine receptor subtypes A2B, A2A, A1, and A3, presented in Table 1, were determined in competitive binding assays using appropriate radioligands and membrane preparations of Chinese hamster ovary (CHO) cells or human embryonic kidney (HEK) cells, respectively, recombinantly expressing the corresponding human receptor subtype.
(§2) Membrane preparations of recombinant CHO or HEK (human embryonic kidney) cells expressing the respective human adenosine receptor subtype were obtained according to Borrman et al. or purchased from Perkin Elmer, Germany. Radioligand binding assays using human A1, A2A, A2B and A3 receptors were performed according to Alnouri et al..
[^3H]2-Chloro-N^6cyclopentyladenosine ([^3H]CCPA, molar activity: 58 Ci/mmol, 1 nM [28]) for the A1 receptor,
(§3) [^3H](R)-8-ethyl-4-methyl-2-(phenyl)1,4,7,8-tetrahydro-5H-imidazo[2,1-i]purin-5-one ([^3H]PSB-11, molar activity: 53 Ci/mmol, 1 nM [30]) for the A3 receptor. Three separate experiments were performed to determine the Ki values. All data were analyzed with GraphPad Prism, Version 4.1 (GraphPad Inc., La Jolla, CA,USA).

[3] = biological target: T2, human adenosine A3 receptor (Homo sapiens, UniProt P0DMS8); assay: Competitive radioligand binding with [3H]PSB-11, membranes of CHO or HEK cells; conditions: for Ki: [3H]PSB-11, mean ± SEM of three independent assays; for Selectivity Ratio Ki(Ax)/Ki(A2B): A3/A2B: ratio of Ki values
T2 construct: host or cells: CHO or HEK cells
T2 sequence (P0DMS8 1-318): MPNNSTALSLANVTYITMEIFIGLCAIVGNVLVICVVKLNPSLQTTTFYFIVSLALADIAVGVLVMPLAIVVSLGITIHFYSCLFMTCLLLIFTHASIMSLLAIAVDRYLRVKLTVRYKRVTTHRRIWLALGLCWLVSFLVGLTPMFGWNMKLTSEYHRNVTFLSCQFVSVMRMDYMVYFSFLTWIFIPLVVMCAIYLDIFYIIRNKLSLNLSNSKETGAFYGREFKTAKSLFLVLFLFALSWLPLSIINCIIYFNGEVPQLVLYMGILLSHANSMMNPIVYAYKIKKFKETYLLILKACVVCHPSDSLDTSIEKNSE
Experimental: as §1, §2, §3

[4] = biological target: T3, human adenosine A2B receptor (Homo sapiens, UniProt P29275); assay: Competitive radioligand binding with [3H]PSB-603, membranes of CHO or HEK cells; conditions: mean ± SEM of three independent assays
T3 construct: host or cells: CHO or HEK cells
T3 sequence (P29275 1-332): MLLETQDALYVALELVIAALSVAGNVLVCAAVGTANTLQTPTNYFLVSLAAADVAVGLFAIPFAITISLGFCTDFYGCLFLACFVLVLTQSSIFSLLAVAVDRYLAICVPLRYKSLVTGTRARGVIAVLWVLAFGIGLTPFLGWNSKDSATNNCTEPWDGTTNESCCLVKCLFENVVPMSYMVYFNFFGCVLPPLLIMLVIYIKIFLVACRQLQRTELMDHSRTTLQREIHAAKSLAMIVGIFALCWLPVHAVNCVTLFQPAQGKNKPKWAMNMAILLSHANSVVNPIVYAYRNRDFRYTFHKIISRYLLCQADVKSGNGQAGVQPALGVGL
Experimental: as §1, §2
[^3H]8-(4-[4-(4-chlorophenyl)piperazine-1-sulfonyl]phenyl)-1-propyl-2,3,6,7-tetrahydro-1H-purine-2,6-dione ([^3H]PSB-603, molar activity: 73Ci/mmol, 0.3 nM [26]) for the A2B receptor, and
as §3

[5] = biological target: T4, human adenosine A2A receptor (Homo sapiens, UniProt P29274); assay: Competitive radioligand binding with [3H]MSX-2, membranes of CHO or HEK cells; conditions: for Ki: [3H]MSX-2, mean ± SEM of three independent assays; for Selectivity Ratio Ki(Ax)/Ki(A2B): A2A/A2B: ratio of Ki values
T4 construct: host or cells: CHO or HEK cells
T4 sequence (P29274 whole entry): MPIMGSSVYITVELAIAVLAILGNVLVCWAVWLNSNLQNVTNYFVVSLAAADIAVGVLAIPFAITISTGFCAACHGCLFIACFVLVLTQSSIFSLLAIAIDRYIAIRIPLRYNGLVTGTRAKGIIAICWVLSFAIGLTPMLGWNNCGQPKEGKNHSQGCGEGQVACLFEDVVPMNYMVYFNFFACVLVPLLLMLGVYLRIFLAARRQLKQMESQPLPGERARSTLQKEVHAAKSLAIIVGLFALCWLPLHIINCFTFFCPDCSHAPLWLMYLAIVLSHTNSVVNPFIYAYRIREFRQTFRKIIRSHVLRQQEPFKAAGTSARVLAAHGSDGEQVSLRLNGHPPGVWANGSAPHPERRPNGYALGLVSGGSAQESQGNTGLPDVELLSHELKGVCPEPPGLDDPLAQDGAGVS
Experimental: as §1, §2
[^3H]3-(3-hydroxypropyl)-7-methyl-8-(m-methoxystyryl)-1-propargylxanthine, ([^3H]MSX-2, molar activity: 84 Ci/mmol, 1 nM [29]) for the A2A receptor,
as §3

[6] = set-up: method as in PMID 20138516; conditions: in vitro, rat hepatic microsomes; cited from earlier work

Structure (SMILES) | intact radiotracer in plasma [1] | Ki [2] | Selectivity Ratio Ki(Ax)/Ki(A2B): A1/A2B [2] | Ki [3] | Selectivity Ratio Ki(Ax)/Ki(A2B): A3/A2B [3] | Ki [4] | Ki [5] | Selectivity Ratio Ki(Ax)/Ki(A2B): A2A/A2B [5] | metabolic stability [6]
O=C(Nc1cnc(-c2ccnc([18F])c2)c(-c2ccccc2F)n1)C1CC1 [[^18F]1] | 35% | – | – | – | – | – | – | – | –
O=c1[nH]c(=O)c2cc(-c3ccnc(F)c3)c(-c3ccco3)nc2[nH]1 [Compound 9, 6-(2-Fluoropyridin-4-yl)-7-(furan-2-yl)pyrido[2,3-d]pyrimidine-2,4(1H,3H)-dione] | – | 149 ± 26 nM | 59 | 286 ± 10 nM | 114 | 2.51 ± 0.58 nM | 107 ± 15 nM | 43 | –
O=c1[nH]c(=O)c2cc(-c3ccncn3)c(-c3ccco3)nc2[nH]1 [Compound 2, 7-(Furan-2-yl)-6-(pyrimidin-4-yl)pyrido[2,3-d]pyrimidine-2,4-(1H,3H)-dione] | – | > 1000 nM | > 400 | > 1000 nM | > 400 | 2.51 ± 1.1 nM | 98.8 ± 28.3 nM | 39 | high metabolic stability
